Source: ChEMBL document CHEMBL4823295, “Design, synthesis and preliminary bioactivity evaluation of bitopic benzopyranomorpholine analogues as selective dopamine D3 receptor ligands as anti-drug addiction therapeutic agents” (Bioorg Med Chem Lett, 2021)
Activity calls are given as the source filed them. The calls are words filed in the database; no cut-off is given here.

What was measured:
D(2) dopamine receptor = D(2) dopamine receptor (Homo sapiens, UniProt P14416); assay: Displacement of [3H]spiperone from human D2 receptor transfected in HEK293 cell membrane measured after 50 mins by competitive radioligand binding analysis; type: cell membranes
D(3) dopamine receptor = D(3) dopamine receptor (Homo sapiens, UniProt P35462); assay: Displacement of [3H]spiperone from human D3 receptor transfected in HEK293 cell membrane measured after 50 mins by competitive radioligand binding analysis; type: cell membranes
Homo sapiens = species on record: Homo sapiens; assay: Selectivity ratio of Ki for human D2 receptor transfected in HEK293 cell membrane to Ki for human D3 receptor transfected in HEK293 cell membrane; type: cell-based
Mus musculus [1] = assay: Anti-addiction activity in naloxone-induced withdrawal symptoms in morphine-dependent mouse model assessed as inhibition of naloxone-induced body weight loss at 50 mg/kg, ip administered 60 mins prior to naloxone injection and measured after 2 hrs of naloxone injection; type: functional, organism-based; conditions: time 3.0 hrs
Mus musculus [2] = assay: Anti-addiction activity in naloxone-induced withdrawal symptoms in morphine-dependent mouse model assessed as inhibition of naloxone-induced jumping response at 50 mg/kg, ip administered 60 mins prior to naloxone injection and measured for 30 mins after naloxone injection; type: functional, organism-based; conditions: time 90.0 min
Mus musculus [3] = assay: Anti-addiction activity in naloxone-induced withdrawal symptoms in morphine-dependent mouse model assessed as reduction in diarrhea frequency at 50 mg/kg, ip administered 60 mins prior to naloxone injection and measured for 30 mins after naloxone injection; type: functional, organism-based; conditions: time 90.0 min
[4] = Toxicity in naloxone-induced withdrawal symptoms in morphine-dependent mouse model assessed as mortality at 50 mg/kg, ip administered 60 mins prior to naloxone injection; type: organism-based; conditions: in vivo, 1 h
[5] = Toxicity in naloxone-induced withdrawal symptoms in morphine-dependent mouse model assessed as convulsions at 50 mg/kg, ip administered 60 mins prior to naloxone injection; type: organism-based; conditions: in vivo, 1 h
[6] = Toxicity in naloxone-induced withdrawal symptoms in morphine-dependent mouse model assessed as slow crawling at 50 mg/kg, ip administered 60 mins prior to naloxone injection; type: organism-based; conditions: in vivo, 1 h
[7] = Toxicity in naloxone-induced withdrawal symptoms in morphine-dependent mouse model assessed as inability to bounce at 50 mg/kg, ip administered 60 mins prior to naloxone injection; type: organism-based; conditions: in vivo, 1 h
Mus musculus [8] = assay: Anti-addiction activity in naloxone-induced withdrawal symptoms in morphine-dependent mouse model assessed as reduction in amount of diarrhea at 50 mg/kg, ip administered 60 mins prior to naloxone injection and measured for 30 mins after naloxone injection; type: functional, organism-based; conditions: time 90.0 min

Sequence of D(2) dopamine receptor (P14416 whole entry): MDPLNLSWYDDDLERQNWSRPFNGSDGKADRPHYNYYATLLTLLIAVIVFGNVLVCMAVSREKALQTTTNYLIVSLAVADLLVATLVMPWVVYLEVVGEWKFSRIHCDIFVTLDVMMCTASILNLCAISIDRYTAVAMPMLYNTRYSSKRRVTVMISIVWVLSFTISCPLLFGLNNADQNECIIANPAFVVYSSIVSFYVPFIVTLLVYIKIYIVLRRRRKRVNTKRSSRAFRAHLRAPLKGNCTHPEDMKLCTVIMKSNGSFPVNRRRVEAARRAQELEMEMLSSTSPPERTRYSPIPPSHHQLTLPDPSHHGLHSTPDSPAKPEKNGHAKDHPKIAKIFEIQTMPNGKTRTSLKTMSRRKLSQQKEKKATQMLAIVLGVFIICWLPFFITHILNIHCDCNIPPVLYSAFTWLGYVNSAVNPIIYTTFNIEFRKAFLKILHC
Sequence of D(3) dopamine receptor (P35462 whole entry): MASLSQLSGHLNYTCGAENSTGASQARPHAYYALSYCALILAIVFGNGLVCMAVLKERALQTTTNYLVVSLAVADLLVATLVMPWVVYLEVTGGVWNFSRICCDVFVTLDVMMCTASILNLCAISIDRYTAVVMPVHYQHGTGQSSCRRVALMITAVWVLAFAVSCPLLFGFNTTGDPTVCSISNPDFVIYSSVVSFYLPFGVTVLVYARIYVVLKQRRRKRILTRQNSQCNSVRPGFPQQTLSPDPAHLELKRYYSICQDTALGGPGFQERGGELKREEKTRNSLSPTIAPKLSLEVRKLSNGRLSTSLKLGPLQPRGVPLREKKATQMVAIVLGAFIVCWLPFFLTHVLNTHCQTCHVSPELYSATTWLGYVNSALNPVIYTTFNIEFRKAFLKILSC

| SMILES | Ki (D(2) dopamine receptor) [nM] | Ki (D(3) dopamine receptor) [nM] | Ratio Ki (Homo sapiens) | Activity (Mus musculus [1]) | Activity (Mus musculus [2]) | Activity (Mus musculus [3]) | Activity [4] | Activity [5] | Activity [6] | Activity [7] | Activity (Mus musculus [8]) |
| --- | --- | --- | --- | --- | --- | --- | --- | --- | --- | --- | --- |
| CCCN1CCO[C@@H]2c3cc(O)ccc3OC[C@H]21 | 43 | 1.82 | 23 | – | – | – | – | – | – | – | – |
| O=C(NCCCCN1CCO[C@@H]2c3ccccc3OC[C@H]21)c1ccc(Br)cc1 (racemic) | 897 | 13.5 | 66 | inactive | – | – | – | – | – | – | – |
| O=C(NCCCCN1CCO[C@@H]2c3ccccc3OC[C@H]21)c1ccccc1 (racemic) | 776 | 72 | 11 | Active | Active | – | – | – | – | – | – |
| COc1ccc2c(c1)[C@H]1OCCN(CCCCNC(=O)c3ccccc3)[C@@H]1CO2 (racemic) | 568 | 13.8 | 41 | Active | – | Active | – | – | – | – | – |
| O=C(NCCCCN1CCO[C@@H]2c3ccccc3OC[C@H]21)c1ccco1 (racemic) | 853 | 11.7 | 73 | Active | – | – | Toxic | Toxic | – | – | – |
| COc1ccccc1C(=O)NCCCCN1CCO[C@@H]2c3ccccc3OC[C@H]21 (racemic) | 863 | 12.9 | 67 | – | – | – | – | – | – | – | – |
| COc1ccc2c(c1)[C@H]1OCCN(CCCCNC(=O)c3cccs3)[C@@H]1CO2 (racemic) | 803 | 6.58 | 122 | – | – | – | – | Toxic | Toxic | Toxic | – |
| COc1ccc2c(c1)[C@H]1OCCN(CCCCNC(=O)c3ccc(Br)cc3)[C@@H]1CO2 (racemic) | 958 | 8.6 | 111 | Active | – | – | – | – | – | – | – |
| COc1ccc2c(c1)[C@H]1OCCN(CCCCNC(=O)c3cccc(Cl)c3)[C@@H]1CO2 (racemic) | 785 | 26.6 | 30 | inactive | Active | – | – | – | – | – | – |
| O=C(NCCCCN1CCO[C@@H]2c3ccccc3OC[C@H]21)c1ccc(-c2ccccc2)cc1 (racemic) | 1020 | 43.8 | 23 | Active | Active | – | – | – | – | – | – |
| COc1ccc2c(c1)[C@H]1OCCN(CCCCNC(=O)c3cc4ccccc4[nH]3)[C@@H]1CO2 (racemic) | 732 | 0.97 | 755 | Active | – | – | – | – | – | – | Active |
| O=C(NCCCCN1CCO[C@@H]2c3ccccc3OC[C@H]21)c1cccs1 (racemic) | 417 | 18.5 | 23 | Active | – | Active | – | – | – | – | – |
| COc1ccc2c(c1)[C@H]1OCCN(CCCCNC(=O)c3cc(OC)c(OC)c(OC)c3)[C@@H]1CO2 (racemic) | 962 | 1.23 | 782 | – | – | – | – | Toxic | Toxic | Toxic | – |
| O=C(NCCCCN1CCO[C@@H]2c3ccccc3OC[C@@H]21)c1ccc(Cl)cc1 (racemic) | – | > 1000 | – | Active | – | Active | – | – | – | – | – |
| COc1ccc2c(c1)[C@H]1OCCN(CCCCNC(=O)c3ccc(Cl)cc3)[C@@H]1CO2 (racemic) | 967 | 12.9 | 75 | – | – | – | Toxic | – | – | – | – |
| COc1ccc2c(c1)[C@H]1OCCN(CCCCNC(=O)C3CCCCC3)[C@@H]1CO2 (racemic) | 688 | 33.6 | 21 | Active | Active | – | – | – | – | – | Active |
| COc1ccc(C(=O)NCCCCN2CCO[C@@H]3c4ccccc4OC[C@H]32)cc1 (racemic) | 568 | 7.5 | 76 | Active | Active | Active | – | – | – | – | – |

| SMILES | Ki (D(2) dopamine receptor) [nM] | Ki (D(3) dopamine receptor) [nM] | Ratio Ki (Homo sapiens) | Activity (Mus musculus [1]) | Activity (Mus musculus [2]) | Activity (Mus musculus [3]) | Activity [4] | Activity [5] | Activity [6] | Activity [7] | Activity (Mus musculus [8]) |
| --- | --- | --- | --- | --- | --- | --- | --- | --- | --- | --- | --- |
| O=C(NCCCCN1CCO[C@@H]2c3ccccc3OC[C@H]21)c1cccc2ccccc12 (racemic) | 563 | 15.8 | 36 | Active | Active | – | – | – | – | – | – |
| COc1ccc2c(c1)[C@H]1OCCN(CCCCNC(=O)c3cccnc3)[C@@H]1CO2 (racemic) | 744 | 9.16 | 81 | – | – | – | – | Toxic | Toxic | Toxic | – |
| COc1cc(C(=O)NCCCCN2CCO[C@@H]3c4ccccc4OC[C@H]32)cc(OC)c1OC (racemic) | 708 | 6.8 | 104 | inactive | – | – | – | – | – | – | – |
| COc1ccc2c(c1)[C@H]1OCCN(CCCCNC(=O)c3ccc(-c4ccccc4)cc3)[C@@H]1CO2 (racemic) | 1060 | 18.4 | 58 | Active | – | – | – | – | – | – | – |
| COc1ccc(C(=O)NCCCCN2CCO[C@@H]3c4cc(OC)ccc4OC[C@H]32)cc1 (racemic) | 697 | 1.08 | 645 | Active | Active | – | – | – | – | – | Active |
| O=C(NCCCCN1CCO[C@@H]2c3ccccc3OC[C@@H]21)c1ccc(-c2ccccc2)cc1 (racemic) | – | > 1000 | – | inactive | – | – | – | – | – | – | – |
| COc1ccc2c(c1)[C@H]1OCCN(CCCCNC(=O)c3ccc([N+](=O)[O-])cc3)[C@@H]1CO2 (racemic) | 589 | 13.9 | 42 | Active | Active | – | – | – | – | – | – |
| COc1ccc2c(c1)[C@H]1OCCN(CCCCNC(=O)c3ccc4ccccc4c3)[C@@H]1CO2 (racemic) | 642 | 19.9 | 32 | Active | – | – | – | – | – | – | – |
| O=C(NCCCCN1CCO[C@@H]2c3ccccc3OC[C@H]21)c1ccc([N+](=O)[O-])cc1 (racemic) | 962 | 33.9 | 28 | Active | Active | Active | – | – | – | – | – |
| O=C(NCCCCN1CCO[C@@H]2c3ccccc3OC[C@H]21)C1CCCCC1 (racemic) | 728 | 63.8 | 11 | Active | Active | – | – | – | – | – | – |
| O=C(NCCCCN1CCO[C@@H]2c3ccccc3OC[C@H]21)c1cc2ccccc2[nH]1 (racemic) | 785 | 10.5 | 75 | Active | Active | – | – | – | – | – | – |
| COc1ccc2c(c1)[C@H]1OCCN(CCCCNC(=O)c3ccco3)[C@@H]1CO2 (racemic) | 923 | 5.2 | 177 | inactive | Active | – | – | – | – | – | – |
| O=C(NCCCCN1CCO[C@@H]2c3ccccc3OC[C@@H]21)c1cccs1 (racemic) | – | > 1000 | – | inactive | – | – | – | – | – | – | – |
| COc1ccc2c(c1)[C@H]1OCCN(CCCCNC(=O)c3cccc4ccccc34)[C@@H]1CO2 (racemic) | 861 | 19.8 | 43 | Active | – | – | – | – | – | – | Active |
| O=C(NCCCCN1CCO[C@@H]2c3ccccc3OC[C@H]21)c1ccc2ccccc2c1 (racemic) | 723 | 13.7 | 53 | Active | – | – | – | – | – | – | Active |
| O=C(NCCCCN1CCO[C@@H]2c3ccccc3OC[C@H]21)c1cccc(Cl)c1 (racemic) | 663 | 23.6 | 28 | Active | – | Active | – | – | – | – | – |
| O=C(NCCCCN1CCO[C@@H]2c3ccccc3OC[C@H]21)c1ccc(Cl)cc1 (racemic) | 473 | 17.8 | 27 | Active | – | – | – | – | – | – | Active |
